# Results reported in publication PMC5816697 (European journal of medicinal chemistry, 2018).
# Entries after “also recorded” stand apart in the source; their conditions may differ.
# Experiments:
# panel of 244 kinases = assay: Kinome profiling against a panel of 244 kinases; type: biochemical; conditions: 1 μM compound
# [1] = test system: phosphorylation of MEK and ERK (BRAF^V600E downstream signaling); assay: Western blot of MEK/ERK phosphorylation in A375 cells; type: cell-based
# Ba/F3 BCR-ABL = assay: MTT growth inhibition assay, Ba/F3 cells expressing Bcr-Abl; type: cell-based; conditions: ratio of IC50 values
# [2] = test system: phosphorylation of Abl at Y412; assay: Immunoblot of Abl Y412 phosphorylation in BCR-ABL-expressing Ba/F3 cells; type: cell-based
smiles,measurement,setting,value
CC(C)n1nc(C#Cc2cccc(NC(=O)c3cccc(C(F)(F)F)c3)c2)c2c(N)ncnc21 [Compound 1],number of kinases inhibited by over 90%,panel of 244 kinases,44
"CCn1nc(C#Cc2cccc3cc(-c4cccc(C(F)(F)F)c4)ncc23)c2c(N)ncnc21 [Compound 2d, 1-Ethyl-3-((3-(3-(trifluoromethyl)phenyl)isoquinolin-8-yl)ethynyl)-1H-pyrazolo[3,4-d]p yrimidin-4-amine]",effect on phosphorylation of MEK,[1]; concentrations up to 100 μM,failed to suppress the phosphorylation of MEK; also recorded: little effects
"CC(C)n1nc(C#Cc2cccc3cc(-c4ccc(CN5CCN(C)CC5)cc4)ncc23)c2c(N)ncnc21 [Compound 2f, 1-Isopropyl-3-((3-(4-((4-methylpiperazin-1-yl)methyl)phenyl)isoquinolin-8-yl)ethynyl)-1H-pyrazolo[3,4-d]pyrimidin-4-amine]",fold less potent than parent compound 1 against Bcr-Abl Ba/F3 cells,Ba/F3 BCR-ABL,44 fold
same,"fold lower potency than compound 1, Abl Y412 phosphorylation",[2],approximately 30 fold
"CCCS(=O)(=O)Nc1ccc(F)c(C(=O)c2c[nH]c3ncc(-c4ccc(Cl)cc4)cc23)c1F [Vem, vemurafenib, reference compound]",effect on phosphorylation of MEK and ERK,[1]; concentrations above 1 μM,abolished the phosphorylation of MEK and ERK
same,effect on phosphorylation of MEK,"[1]; various concentrations, Figure 4",potently blocked phosphorylation of MEK
